Measurements from patent US9226499B2, “Protected antimicrobial compounds for high temperature applications” (Dow Global Technologies LLC, priority 2010, dated 2016).

Key:
T. thermophilus = assay: Biocidal efficacy against thermophilic bacteria at 70° C., dilution to extinction; type: cell-based; conditions: equivalent of 100 ppm glutaraldehyde, after 5 days with re-challenging
Description: b. Thermophilic Bacteria. A 48-72 hour old culture of T. thermophilus is pelleted by centrifuging at 2000 g and the pellet resuspended in 10 times the culture volume of buffer (PBS or carbonate-buffered synthetic freshwater). The suspension is distributed into 10 mL aliquots in glass screw-cap tubes. Each tube is then treated with glutaraldehyde or an adduct and incubated at 70° C. At indicated timepoints, cell density in each tube is measured via dilution to extinction by serially diluting a sample and plating dilutions on solid media.

[1] = Analysis of glutaraldehyde release after heat-aging; type: physicochemical; conditions: sterile deionized water, molar equivalent of 2000 ppm glutaraldehyde; initial and heat-aged at 55° C. for 2 h or 24 h
Description: Samples of the IPHA-adduct are analyzed for glutaraldehyde content. Samples are prepared in sterile deionized water at the molar equivalent of 2000 ppm glutaraldehyde. A standard of 500 ppm glutaraldehyde is also prepared. An initial measurement is taken just after sample preparation. Samples are then heat-aged at 55° C. for 2 h or 24 h and analyzed again. Glutaraldehyde concentration is measured directly via GC and after pre-column derivatization by HPLC.

| Glutaraldehyde concentration after pre-column derivatization by HPLC [1] | Glutaraldehyde concentration measured directly via GC [1] | SMILES | Control of bacterial levels after 5 days (T. thermophilus) |
| --- | --- | --- | --- |
| – | – | O=CCCCC=O [glutaraldehyde] | fails to control bacterial levels |
| low levels of glutaraldehyde | No glutaraldehyde is detected | CC(C)/[N+]([O-])=C/CCC/C=[N+](\[O-])C(C)C [IPHA-adduct, N,N′-(pentane-1,5-diylidene)bis(propan-2-amineoxide)] | – |
